Where two headings read alike, the source gives them in different places.
What was measured:
GCN2 kinase = GCN2 kinase (Homo sapiens, UniProt Q9P2K8); assay: GCN2 enzyme inhibition assay (Transcreener ADP2 fluorescence polarization); assay type: biochemical; details: 280 μM ATP
Summary of the method: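 FP detection of ADP (antibody plus Alexa633 tracer) after a 1 h, 25 °C kinase reaction. Enzyme 4 nM, ATP 280 μM, (RS)7 peptide 200 μM, Tris pH 7.5 buffer with MgCl2 and DTT. Percent inhibition fitted by non-linear tight-binding algorithm for IC50 and Ki(app).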

[1] = molecular target: intracellular GCN2 (phosphorylation of the GCN2 substrate eIF2α) (Homo sapiens, UniProt Q9P2K8); assay: GCN2 cellular inhibition assay (AlphaScreen SureFire P-eIF2α Ser51, borrelidin-treated U2OS cells); assay type: cell-based
Summary of the method: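 U2OS cells, adhered overnight, received compounds in 4-fold serial dilutions from 40 μM final, then 10 μM borrelidin for 1 h at 37 °C. Lysates were read by AlphaScreen for phospho-eIF2α Ser51; percent inhibition was set against borrelidin-only wells.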

[2] = Enzyme activity for compounds of Formula IV, Ki(app), 25° C.
[3] = compounds of Formula IV, biomarker assay, phosphorylated eIF2α Ser51 in borrelidin-treated U2OS cells
[4] = compounds of Formula II, 4 nM GCN2 kinase
[5] = compounds of Formula II, biomarker assay, phosphorylated eIF2α Ser51 in borrelidin-treated U2OS cells

Sequence of GCN2 kinase (Q9P2K8 whole entry): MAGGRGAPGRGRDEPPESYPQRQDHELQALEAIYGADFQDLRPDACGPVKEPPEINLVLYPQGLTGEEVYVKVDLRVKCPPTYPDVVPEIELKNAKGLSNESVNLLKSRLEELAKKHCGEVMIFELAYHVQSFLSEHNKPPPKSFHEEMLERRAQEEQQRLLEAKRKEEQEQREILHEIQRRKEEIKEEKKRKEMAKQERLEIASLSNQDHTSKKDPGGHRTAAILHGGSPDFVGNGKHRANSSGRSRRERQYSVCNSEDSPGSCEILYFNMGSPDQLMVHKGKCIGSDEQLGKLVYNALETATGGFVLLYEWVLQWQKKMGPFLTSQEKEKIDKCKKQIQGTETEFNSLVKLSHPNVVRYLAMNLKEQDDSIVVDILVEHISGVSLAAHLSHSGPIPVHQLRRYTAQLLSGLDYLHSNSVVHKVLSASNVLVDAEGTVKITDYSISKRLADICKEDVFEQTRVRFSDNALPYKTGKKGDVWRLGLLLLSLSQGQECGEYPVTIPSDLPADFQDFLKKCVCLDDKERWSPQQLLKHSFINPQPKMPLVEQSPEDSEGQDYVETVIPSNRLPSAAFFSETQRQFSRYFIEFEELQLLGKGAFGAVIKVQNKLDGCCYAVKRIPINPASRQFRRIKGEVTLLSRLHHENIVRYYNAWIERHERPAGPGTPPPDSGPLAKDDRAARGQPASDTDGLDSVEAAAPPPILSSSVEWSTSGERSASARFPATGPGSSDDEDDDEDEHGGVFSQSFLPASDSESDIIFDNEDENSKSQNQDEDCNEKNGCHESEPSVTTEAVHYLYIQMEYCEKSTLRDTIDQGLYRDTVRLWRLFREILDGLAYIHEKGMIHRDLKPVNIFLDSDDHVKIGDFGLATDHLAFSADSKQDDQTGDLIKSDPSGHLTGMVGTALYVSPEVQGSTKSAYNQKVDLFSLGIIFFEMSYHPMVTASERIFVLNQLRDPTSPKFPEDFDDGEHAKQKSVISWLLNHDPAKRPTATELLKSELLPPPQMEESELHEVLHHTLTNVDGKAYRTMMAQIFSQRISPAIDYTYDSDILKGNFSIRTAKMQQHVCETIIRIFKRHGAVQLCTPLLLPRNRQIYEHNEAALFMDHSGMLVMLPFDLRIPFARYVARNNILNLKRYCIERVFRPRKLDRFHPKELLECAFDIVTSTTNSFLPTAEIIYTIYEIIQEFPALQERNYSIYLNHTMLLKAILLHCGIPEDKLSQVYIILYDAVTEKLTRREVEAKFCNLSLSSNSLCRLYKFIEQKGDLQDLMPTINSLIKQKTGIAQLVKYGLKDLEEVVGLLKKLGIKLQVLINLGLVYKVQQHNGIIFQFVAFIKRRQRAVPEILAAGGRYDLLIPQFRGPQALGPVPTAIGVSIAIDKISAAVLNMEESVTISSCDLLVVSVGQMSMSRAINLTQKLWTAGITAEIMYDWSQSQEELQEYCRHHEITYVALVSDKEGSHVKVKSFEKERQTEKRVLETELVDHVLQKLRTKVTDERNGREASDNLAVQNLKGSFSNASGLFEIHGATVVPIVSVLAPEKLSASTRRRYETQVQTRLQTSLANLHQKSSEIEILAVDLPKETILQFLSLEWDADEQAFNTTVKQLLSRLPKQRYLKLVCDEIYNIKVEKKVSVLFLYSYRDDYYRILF
Sequence of intracellular GCN2 (phosphorylation of the GCN2 substrate eIF2α) (Q9P2K8 whole entry): as above

SMILES	Ki (GCN2 kinase; [2]) [nM]	IC50 [1, 3] [nM]	Ki (GCN2 kinase; [4]) [nM]	IC50 [1, 5] [nM]	also measured
CC1CN(c2ccnc(-c3cnc4sc(C(F)(F)F)cn34)n2)C(C)C(c2cn[nH]c2)N1 (single isomer, unassigned) [Compound V-12, 5-[4-[2,5-Dimethyl-3-(1H-pyrazol-4-yl)piperazin-1-yl]pyrimidin-2-yl]-2-(trifluoromethyl)imidazo[2,1-b]thiazole]	–	–	–	–	Ki (GCN2 kinase; compounds of Formula V, 4 nM GCN2 kinase): 100 to 1000 nM; IC50 ([1]; compounds of Formula V, U2OS cells, 10 μM borrelidin, 1 h, read-out: GCN2 Biomarker (IC50)): 500 to 5000 nM
CC1CN(c2ccnc(-c3cnc4cnc(Cl)cn34)n2)CC(CNS(C)(=O)=O)C1(F)F (stereo not drawn) [IV-5, N-((1-(2-(6-Chloroimidazo[1,2-a]pyrazin-3-yl)pyrimidin-4-yl)-4,4-difluoro-5-methylpiperidin-3-yl)methyl)methanesulfonamide]	10 to 100	500 to 5000	–	–	–
FC(F)c1ccc2ncc(-c3cc(-c4cnn(C5CCOCC5)c4)ncn3)n2n1 [II-709, 6-(Difluoromethyl)-3-[6-(1-tetrahydropyran-4-ylpyrazol-4-yl)pyrimidin-4-yl]imidazo[1,2-b]pyridazine]	–	–	10 to 1000	500 to 5000	–
FC(F)c1ccc2ncc(-c3cc(N4CC5(COC5)C4)ncn3)n2n1 [II-252, 6-(6-(6-(Difluoromethyl)imidazo[1,2-b]pyridazin-3-yl)pyrimidin-4-yl)-2-oxa-6-azaspiro[3.3]heptane]	–	–	10 to 1000	> 5000	–
CC1CN(c2cc(-c3cnc4ccc(C(F)(F)F)nn34)ncn2)C(C)C(c2cn[nH]c2)N1 (stereo not drawn) [II-704, 3-(6-(2,5-Dimethyl-3-(1H-pyrazol-4-yl)piperazin-1-yl)pyrimidin-4-yl)-6-(trifluoromethyl)imidazo[1,2-b]pyridazine]	–	–	10 to 1000	> 5000	–
CC1CN(c2cc(-c3cnc4ccc(C(F)(F)F)nn34)ncn2)C(C)C(c2cn[nH]c2)N1 (stereo not drawn) [II-705, 3-(6-(2,5-Dimethyl-3-(1H-pyrazol-4-yl)piperazin-1-yl)pyrimidin-4-yl)-6-(trifluoromethyl)imidazo[1,2-b]pyridazine]	–	–	< 10	< 500	–
FC(F)c1cn2c(-c3nccc(N4CCOC(c5cn[nH]c5)C4)n3)cnc2cn1 (stereo not drawn) [IV-28, 4-(2-(6-(Difluoromethyl)imidazo[1,2-a]pyrazin-3-yl)pyrimidin-4-yl)-2-(1H-pyrazol-4-yl)morpholine]	10 to 100	500 to 5000	–	–	–
C[C@@H]1CCCCN1c1cc(-c2cnc3ccc(C(F)F)nn23)ncn1 [II-354, (R)-6-(Difluoromethyl)-3-(6-(2-methylpiperidin-1-yl)pyrimidin-4-yl)imidazo[1,2-b]pyridazine]	–	–	10 to 1000	> 5000	–
NC(=O)C1CN(c2cc(-c3cnc4ccc(C(F)F)nn34)ncn2)CCO1 (stereo not drawn) [II-50, 4-(6-(6-(Difluoromethyl)imidazo[1,2-b]pyridazin-3-yl)pyrimidin-4-yl)morpholine-2-carboxamide]	–	–	10 to 1000	500 to 5000	–
CS(=O)(=O)NC[C@H]1CCCN(c2cc(-c3cnc4ccc(C(F)(F)F)nn34)ncn2)C1 [II-291, (S)—N-((1-(6-(6-(Trifluoromethyl)imidazo[1,2-b]pyridazin-3-yl)pyrimidin-4-yl)piperidin-3-yl)methyl)methanesulfonamide]	–	–	< 10	< 500	–
CS(=O)(=O)NCC1CN(c2cc(-c3cnc4ccc(C(F)F)nn34)ncn2)CC(C2CC2)O1 (stereo not drawn) [II-443, N-((6-Cyclopropyl-4-(6-(6-(difluoromethyl)imidazo[1,2-b]pyridazin-3-yl)pyrimidin-4-yl)morpholin-2-yl)methyl)methanesulfonamide]	–	–	< 10	< 500	–
FC(F)c1ccc2ncc(-c3cc(N4Cc5ccncc5C4)ncn3)n2n1 [II-28, 3-(6-(1H-Pyrrolo[3,4-c]pyridin-2(3H)-yl)pyrimidin-4-yl)-6-(difluoromethyl)imidazo[1,2-b]pyridazine]	–	–	10 to 1000	< 500	–
COC1CCN(c2cc(-c3cnc4ccc(C(F)F)nn34)ncn2)CC1CNS(C)(=O)=O (stereo not drawn) [II-390, N-((1-(6-(6-(Difluoromethyl)imidazo[1,2-b]pyridazin-3-yl)pyrimidin-4-yl)-4-methoxypiperidin-3-yl)methyl)methanesulfonamide]	–	–	< 10	< 500	–
CC1C(CNS(C)(=O)=O)C(F)(F)CCN1c1cc(-c2cnc3ccc(C(F)F)nn23)ncn1 (single isomer, unassigned) [II-302, N-((1-(6-(6-(Difluoromethyl)imidazo[1,2-b]pyridazin-3-yl)pyrimidin-4-yl)-4,4-difluoro-2-methylpiperidin-3-yl)methyl)methanesulfonamide]	–	–	10 to 1000	500 to 5000	–
CN(CC1CC(O)CN(c2cc(-c3cnc4ccc(C(F)F)nn34)ncn2)C1)S(C)(=O)=O (stereo not drawn) [II-235, N-((1-(6-(6-(Difluoromethyl)imidazo[1,2-b]pyridazin-3-yl)pyrimidin-4-yl)-5-hydroxypiperidin-3-yl)methyl)-N-methylmethanesulfonamide]	–	–	10 to 1000	500 to 5000	–
CC1C(CO)OCCN1c1cc(-c2cnc3ccc(C(F)F)nn23)ncn1 (single isomer, unassigned) [II-413, (4-(6-(6-(Difluoromethyl)imidazo[1,2-b]pyridazin-3-yl)pyrimidin-4-yl)-3-methylmorpholin-2-yl)methanol]	–	–	> 1000	> 5000	–
CS(=O)(=O)NCCC1CCN(c2cc(-c3cnc4ccc(C(F)F)nn34)ncn2)C1 (stereo not drawn) [II-17, N-(2-(1-(6-(6-(Difluoromethyl)imidazo[1,2-b]pyridazin-3-yl)pyrimidin-4-yl)pyrrolidin-3-yl)ethyl)methanesulfonamide]	–	–	10 to 1000	500 to 5000	–
OC[C@H]1CCCN(c2cc(-c3cnc4ccc(C(F)(F)F)nn34)ncn2)C1 [II-516, (S)-(1-(6-(6-(Trifluoromethyl)imidazo[1,2-b]pyridazin-3-yl)pyrimidin-4-yl)piperidin-3-yl)methanol]	–	–	10 to 1000	500 to 5000	–

More lines, main results first:

Ki (GCN2 kinase; [2]) [nM]	IC50 [1, 3] [nM]	Ki (GCN2 kinase; [4]) [nM]	IC50 [1, 5] [nM]	SMILES	also measured
10 to 100	500 to 5000	–	–	CC1C(c2cn[nH]c2)NCCN1c1ccnc(-c2cnc3cnc(C(F)F)cn23)n1 (stereo not drawn) [IV-454, 6-(Difluoromethyl)-3-(4-(2-methyl-3-(1H-pyrazol-4-yl)piperazin-1-yl)pyrimidin-2-yl)imidazo[1,2-a]pyrazine]	–
< 10	500 to 5000	–	–	FC(F)(F)c1cn2c(-c3nccc(N4CCC(c5cn[nH]c5)C4)n3)cnc2cn1 (single isomer, unassigned) [IV-540, 3-(4-(3-(1H-Pyrazol-4-yl)pyrrolidin-1-yl)pyrimidin-2-yl)-6-(trifluoromethyl)imidazo[1,2-a]pyrazine]	–
100 to 1000	> 5000	–	–	CN([C@H]1CCN(c2ccnc(-c3cnc4cnc(C(F)F)cn34)n2)C1)S(C)(=O)=O [IV-125, (S)—N-(1-(2-(6-(Difluoromethyl)imidazo[1,2-a]pyrazin-3-yl)pyrimidin-4-yl)pyrrolidin-3-yl)-N-methylmethanesulfonamide]	–
< 10	500 to 5000	–	–	OC1CCN(c2ccnc(-c3cnc4cnc(C(F)(F)F)cn34)n2)CC1c1cn[nH]c1 (single isomer, unassigned) [IV-621, 3-(1H-Pyrazol-4-yl)-1-(2-(6-(trifluoromethyl)imidazo[1,2-a]pyrazin-3-yl)pyrimidin-4-yl)piperidin-4-ol]	–
100 to 1000	> 5000	–	–	CC(=O)N1CCN(c2ccnc(-c3cnc4cnc(C(N)=O)cn34)n2)CC1 [IV-36, 3-(4-(4-Acetylpiperazin-1-yl)pyrimidin-2-yl)imidazo[1,2-a]pyrazine-6-carboxamide]	–
10 to 100	> 5000	–	–	Cc1n[nH]c(C)c1C1CCN(c2ccnc(-c3cnc4cnc(C(F)(F)F)cn34)n2)C1 (stereo not drawn) [IV-574, 3-(4-(3-(3,5-Dimethyl-1H-pyrazol-4-yl)pyrrolidin-1-yl)pyrimidin-2-yl)-6-(trifluoromethyl)imidazo[1,2-a]pyrazine]	–
100 to 1000	> 5000	–	–	OC[C@H]1CCCN(c2ccnc(-c3cnc4cnc(C(F)F)cn34)n2)C1 [IV-142, (S)-(1-(2-(6-(Difluoromethyl)imidazo[1,2-a]pyrazin-3-yl)pyrimidin-4-yl)piperidin-3-yl)methanol]	–
< 10	< 500	–	–	CC1C(c2cn[nH]c2)NCCN1c1ccnc(-c2cnc3cnc(Br)cn23)n1 (single isomer, unassigned) [IV-414, 6-Bromo-3-(4-(2-methyl-3-(1H-pyrazol-4-yl)piperazin-1-yl)pyrimidin-2-yl)imidazo[1,2-a]pyrazine]	–
100 to 1000	> 5000	–	–	NS(=O)(=O)N[C@@H]1CCCN(c2ccnc(-c3cnc4cnc(C(F)F)cn34)n2)C1 [IV-181, 6-(Difluoromethyl)-3-[4-[(3R)-3-(sulfamoylamino)-1-piperidyl]pyrimidin-2-yl]imidazo[1,2-a]pyrazine]	–
100 to 1000	> 5000	–	–	C[C@@H]1CCCN(c2ccnc(-c3cnc4cnc(C(F)F)cn34)n2)C1 [IV-129, (R)-6-(Difluoromethyl)-3-(4-(3-methylpiperidin-1-yl)pyrimidin-2-yl)imidazo[1,2-a]pyrazine]	–
100 to 1000	> 5000	–	–	Cn1cc(C2CCN(c3ccnc(-c4cnc5cnc(C(F)F)cn45)n3)C2)cn1 (stereo not drawn) [IV-65, 6-(Difluoromethyl)-3-(4-(3-(1-methyl-1H-pyrazol-4-yl)pyrrolidin-1-yl)pyrimidin-2-yl)imidazo[1,2-a]pyrazine]	–
100 to 1000	> 5000	–	–	C[C@H]1[C@@H](C(=O)O)CCCN1c1ccnc(-c2cnc3cnc(C(F)F)cn23)n1 (racemic) [IV-110, Cis-1-(2-(6-(Difluoromethyl)imidazo[1,2-a]pyrazin-3-yl)pyrimidin-4-yl)-2-methylpiperidine-3-carboxylic acid]	–

Source: US10988477B2 (Merck Patent GmbH, priority 2018, dated 2021)
